Values of other authors in article PMC4412765 (Chemical biology & drug design, 2014).

Test system: S. aureus
Conditions: cited from earlier work

C(=C\c1cc2ccc(C3=NCCN3)cc2[nH]1)/c1cc2ccc(C3=NCCN3)cc2[nH]1 [BPH-1417]
in vitro activity against S. aureus: potent
